What was measured:
[1] = target: Bifunctional 3'-5' exonuclease/ATP-dependent helicase WRN (Homo sapiens, UniProt Q14191); experiment: ADP-Glo Kinase Assay
Description: ATPase activity was measured using the ADP-Glo Kinase Assay following the manufacturers recommended protocol.

[2] = target: T1, Bifunctional 3'-5' exonuclease/ATP-dependent helicase WRN [480-1251] (UniProt Q14191); experiment: Biochemical Activity Assays
T1 construct: 480-1251
T1 sequence (Q14191 480-1251): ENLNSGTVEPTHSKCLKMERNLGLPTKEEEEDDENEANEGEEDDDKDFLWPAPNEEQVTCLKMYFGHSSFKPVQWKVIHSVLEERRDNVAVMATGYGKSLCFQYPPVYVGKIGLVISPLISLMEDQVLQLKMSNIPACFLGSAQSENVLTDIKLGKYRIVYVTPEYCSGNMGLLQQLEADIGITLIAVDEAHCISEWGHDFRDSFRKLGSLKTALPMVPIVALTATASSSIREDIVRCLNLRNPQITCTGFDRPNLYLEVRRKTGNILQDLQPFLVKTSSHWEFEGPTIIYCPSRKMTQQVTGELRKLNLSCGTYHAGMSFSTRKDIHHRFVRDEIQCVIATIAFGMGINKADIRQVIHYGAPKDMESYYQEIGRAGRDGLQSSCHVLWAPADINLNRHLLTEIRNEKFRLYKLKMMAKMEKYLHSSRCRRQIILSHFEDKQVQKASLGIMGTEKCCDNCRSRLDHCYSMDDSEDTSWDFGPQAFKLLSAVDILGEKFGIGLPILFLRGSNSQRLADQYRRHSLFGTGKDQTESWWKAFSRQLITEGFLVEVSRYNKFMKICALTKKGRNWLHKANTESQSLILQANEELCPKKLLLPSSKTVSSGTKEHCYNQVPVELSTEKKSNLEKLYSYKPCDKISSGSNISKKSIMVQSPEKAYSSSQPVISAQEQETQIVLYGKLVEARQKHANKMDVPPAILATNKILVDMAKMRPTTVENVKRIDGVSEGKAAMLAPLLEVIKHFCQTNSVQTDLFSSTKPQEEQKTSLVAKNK

Bifunctional 3'-5' exonuclease/ATP-dependent helicase WRN, sequence (Q14191 whole entry): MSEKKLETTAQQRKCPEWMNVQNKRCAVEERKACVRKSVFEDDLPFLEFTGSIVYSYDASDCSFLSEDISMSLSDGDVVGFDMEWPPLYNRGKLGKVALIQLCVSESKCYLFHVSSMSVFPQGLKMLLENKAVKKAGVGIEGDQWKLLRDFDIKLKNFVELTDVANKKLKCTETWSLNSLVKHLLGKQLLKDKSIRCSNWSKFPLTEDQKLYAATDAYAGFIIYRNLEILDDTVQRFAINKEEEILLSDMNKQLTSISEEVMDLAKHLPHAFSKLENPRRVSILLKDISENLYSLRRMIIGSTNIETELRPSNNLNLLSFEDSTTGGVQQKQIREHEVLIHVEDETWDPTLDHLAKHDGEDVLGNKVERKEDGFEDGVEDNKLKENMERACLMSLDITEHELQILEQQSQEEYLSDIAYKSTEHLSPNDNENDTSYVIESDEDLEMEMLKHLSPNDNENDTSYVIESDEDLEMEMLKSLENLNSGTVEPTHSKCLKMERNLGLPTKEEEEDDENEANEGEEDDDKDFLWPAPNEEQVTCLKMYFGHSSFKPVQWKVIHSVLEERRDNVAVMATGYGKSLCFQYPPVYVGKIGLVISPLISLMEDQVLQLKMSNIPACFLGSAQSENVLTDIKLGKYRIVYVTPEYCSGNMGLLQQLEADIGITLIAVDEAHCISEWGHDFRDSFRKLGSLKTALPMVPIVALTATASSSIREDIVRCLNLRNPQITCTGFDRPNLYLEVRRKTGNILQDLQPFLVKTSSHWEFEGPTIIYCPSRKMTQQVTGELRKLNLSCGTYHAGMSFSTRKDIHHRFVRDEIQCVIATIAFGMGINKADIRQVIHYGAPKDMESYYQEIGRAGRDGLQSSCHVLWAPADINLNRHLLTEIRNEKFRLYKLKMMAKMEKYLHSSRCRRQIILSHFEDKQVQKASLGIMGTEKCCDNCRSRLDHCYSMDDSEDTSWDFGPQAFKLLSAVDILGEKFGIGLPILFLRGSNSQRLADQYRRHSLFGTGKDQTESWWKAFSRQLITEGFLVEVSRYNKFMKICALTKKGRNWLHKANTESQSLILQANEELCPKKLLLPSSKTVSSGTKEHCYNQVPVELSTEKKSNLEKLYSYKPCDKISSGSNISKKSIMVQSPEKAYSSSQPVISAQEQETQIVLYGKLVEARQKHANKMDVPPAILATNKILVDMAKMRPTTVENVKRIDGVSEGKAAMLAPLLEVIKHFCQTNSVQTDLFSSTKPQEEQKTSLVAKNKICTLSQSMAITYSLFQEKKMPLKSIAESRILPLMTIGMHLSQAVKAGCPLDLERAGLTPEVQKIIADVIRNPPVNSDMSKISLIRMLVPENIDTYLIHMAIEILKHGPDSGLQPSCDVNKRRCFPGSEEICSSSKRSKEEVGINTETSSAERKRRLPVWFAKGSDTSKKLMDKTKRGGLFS

SMILES	IC50 [1] [nM]	IC50 [2] [nM]
CCc1c(N2CCN(C(=O)c3ncnc(C)c3O)CC2)c(=O)n2nc(-c3cc(F)c4c(c3)CCO4)nc2n1CC(=O)Nc1ccc(C(F)(F)F)cc1Cl [WO2025049746, Example 173]	36	28
CCc1c(N2CCN(C(C)=O)CC2)c(=O)n2nc(-c3ncc(O)cn3)nc2n1CC(=O)Nc1ccc(C(F)(F)F)cc1Cl [WO2025049746, Example 434]	577	102
CCc1c(N2CCN(C(=O)c3ncnc(C)c3O)CC2)c(=O)n2nc(-c3cc4ccnn4cc3C)nc2n1CC(=O)Nc1ccc(C(F)(F)F)cc1Cl [WO2025049746, Example 243]	26	34
CCc1c(N2CCN(C(=O)c3ncnc(C)c3O)CC2)c(=O)n2nc(-c3ccc4c(c3)CCOC4)nc2n1CC(=O)Nc1ccc(SC(F)(F)F)cc1 [WO2025049746, Example 393]	506	419
CCc1c(N2CCN(C(=O)c3ncnc(C)c3O)CC2)c(=O)n2nc(-c3cc4ccnn4cc3F)nc2n1CC(=O)Nc1ccc(C(F)(F)F)cc1Cl [WO2025049746, Example 242]	19	18
CCc1c(N2CCN(C(=O)c3ncnc(C)c3O)CC2)c(=O)n2nc(-c3ccc4c(c3C)COC4(C)C)nc2n1CC(=O)Nc1ccc(C(F)(F)F)cc1Cl [WO2025049746, Example 214]	45	38
CCc1c(N2CCN(C(=O)c3ncnc(C)c3O)CC2)c(=O)n2nc(-c3cnc4nccn4c3)nc2n1CC(=O)Nc1ccc(C(F)(F)F)cc1Cl [WO2025049746, Example 305]	48	48
CCc1c(N2CCN(C(=O)c3ncnc(C)c3O)CC2)c(=O)n2nc(-c3ccc4ncn(C)c(=O)c4c3)nc2n1CC(=O)Nc1ccc(C(F)(F)F)cc1Cl [WO2025049746, Example 259]	29	29
CCc1c(N2CCN(C(=O)c3ncnc(C)c3O)CC2)c(=O)n2nc(-c3ccc4c(c3)CCO4)nc2n1CC(=O)Nc1ccc(Cl)c(OC(F)F)c1Cl [WO2025049746, Example 405]	44	35
Cc1ncnc(C(=O)N2CCN(c3c4n(c5nc(-c6ccc7c(c6)COC7(C)C)nn5c3=O)[C@H](C(=O)Nc3ccc(C(F)(F)F)cc3Cl)C[C@H]4C)CC2)c1O [WO2025049746, Example 469]	25.5	27.5
CCc1c(N2CCN(C(=O)c3ncnc(C)c3O)CC2)c(=O)n2nc(-c3ccc4c(c3)c(C)nn4C)nc2n1CC(=O)Nc1ccc(C(F)(F)F)cc1Cl [WO2025049746, Example 312]	35	37
CCc1c(N2CCN(C(=O)c3ncnc(C)c3O)CC2)c(=O)n2nc(-c3ccc4c(c3)OCO4)nc2n1CC(=O)Nc1c(Cl)cc(C(F)(F)F)c2c1CC2 [WO2025049746, Example 380]	61	44
CCc1c(N2CCN(C(=O)c3ncnc(C)c3O)CC2)c(=O)n2nc(-c3cc4c(cnn4C)cc3C)nc2n1CC(=O)Nc1ccc(C(F)(F)F)cc1Cl [WO2025049746, Example 306]	29700	29700
CCc1c(N2CCN(C(=O)c3cn(C)nc3O)CC2)c(=O)n2nc(N(C)C)nc2n1CC(=O)Nc1ccc(C(F)(F)F)cc1Cl [WO2025049746, Example 83]	64.6	44.7
CCc1c(-c2cc3n(n2)CC(=O)N(C)C3)c(=O)n2nc(C3=CCOCC3)nc2n1CC(=O)Nc1ccc(C(F)(F)F)cc1Cl [WO2025049746, Example 338]	29700	29700
CCc1c(N2CCN(C(=O)c3ncnc(C)c3O)CC2)c(=O)n2nc(-c3ccccc3C(=O)NC3CC3)nc2n1CC(=O)Nc1ccc(C(F)(F)F)cc1Cl [WO2025049746, Example 269]	61	63

SMILES	IC50 [1] [nM]	IC50 [2] [nM]
CCc1c(N2CC[C@@H]3[C@@H]2CCCN3C(=O)c2ncnc(C)c2O)c(=O)n2nc(-c3ccc4c(c3)COC4)nc2n1CC(=O)Nc1ccc(C(F)(F)F)cc1Cl [WO2025049746, Example 438]	25	28
CCc1c(N2CCN(C(=O)c3ncnc(C)c3O)CC2)c(=O)n2nc(-c3ccc4nn(C)cc4c3)nc2n1CC(=O)Nc1ccc(C(F)(F)F)cc1Cl [WO2025049746, Example 235]	23	26
CCc1c(N2CCN(C(=O)c3ncnc(C)c3O)CC2)c(=O)n2nc(C3=CCOCC3)nc2n1CC(=O)Nc1ccc(SC(F)(F)F)cc1Cl [WO2025049746, Example 364]	36	30
CCc1c(N2CCN(C(=O)c3ncnc(C)c3O)CC2)c(=O)n2nc(-c3ccc4c(c3)COC4)nc2n1CC(=O)Nc1ccc(C(F)(F)F)cc1OC1CC1 [WO2025049746, Example 416]	387	159
CCc1c(N2CCN(C(=O)c3ncnc(C)c3O)CC2)c(=O)n2nc(-c3ccc4c(c3)C(=O)N(C)C4)nc2n1CC(=O)Nc1ccc(C(F)(F)F)cc1Cl [WO2025049746, Example 186]	52	45
CCc1c(N2CCN(C(=O)c3ncnc(C)c3O)CC2)c(=O)n2nc(-c3cc(C)c4ncccc4c3)nc2n1CC(=O)Nc1ccc(C(F)(F)F)cc1Cl [WO2025049746, Example 336]	53	60
CCc1c(N2CCN(C(=O)c3ccccc3NS(C)(=O)=O)CC2)c(=O)n2nc(-c3cccc4c3OCCO4)nc2n1CC(=O)Nc1ccc(C(F)(F)F)cc1Cl [WO2025049746, Example 378]	154	96
CCc1c(N2CCN(C(=O)c3ncnc(C)c3O)CC2)c(=O)n2nc(-c3cccc4c3OCCO4)nc2n1CC(=O)Nc1ccc(C(F)(F)F)cc1Cl [WO2025049746, Example 2]	27.1	18.7
CCc1c(N2CCN(C(=O)c3ncnc(C)c3O)CC2)c(=O)n2nc(-c3ccc4nc(NC)oc4c3)nc2n1CC(=O)Nc1ccc(C(F)(F)F)cc1Cl [WO2025049746, Example 307]	32	32
CCc1c(N2CCN(C(=O)c3csc4cncnc34)CC2)c(=O)n2nc(C3=CCOCC3)nc2n1CC(=O)Nc1ccc(C(F)(F)F)cc1Cl [WO2025049746, Example 43]	63.9	41.9
CCc1c(N2CCN(C(=O)c3ncnc(C)c3O)CC2)c(=O)n2nc(N3CC(OC)C3)nc2n1CC(=O)Nc1ccc(C(F)(F)F)cc1Cl [WO2025049746, Example 27]	86.3	56
CCc1c(N2CCN(C(=O)c3ncnc(C)c3O)CC2)c(=O)n2nc(-c3nc4c(s3)CCC4)nc2n1CC(=O)Nc1ccc(C(F)(F)F)cc1Cl [WO2025049746, Example 210]	38	31
CCc1c(N2CCN(C(=O)c3ncnc(C)c3O)CC2)c(=O)n2nc(-c3cnc4c(c3)COC4)nc2n1CC(=O)Nc1ccc(C(F)(F)F)cc1Cl [WO2025049746, Example 14]	39.3	33.1
CCc1c(N2CCN(C(=O)c3nc4n(c(=O)c3O)CCOC4)CC2)c(=O)n2nc(C3=CCOCC3)nc2n1CC(=O)Nc1ccc(C(F)(F)F)cc1Cl [WO2025049746, Example 32]	29.7	25
CCc1c(N2CCN(C(=O)c3ncnc(C)c3O)CC2)c(=O)n2nc(-c3ccc4c(c3)C[C@@H](C)O4)nc2n1CC(=O)Nc1ccc(C(F)(F)F)cc1Cl [WO2025049746, Example 231]	40	49
